Laboratory results: ChEMBL document CHEMBL1201862, “PubChem BioAssay data set” (2004)
The source made the active and inactive calls.

Experiments:
[1] = Cytotoxicity screening for potential Inhibitors of Bacterial Capsule Biogenesis (4).; format: functional
[2] = inhibitors of PGC1a acetylation in cells, dose response, cell-based, cherry-picked samples (AID 720514); format: functional;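 further: potency may reflect raised or lowered acetylation signal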
Beta-galactosidase = Beta-galactosidase (Escherichia coli, UniProt Q8VNN2); experiment: Dose response counterscreen for EBI2 assay utilizing the enzyme, b-galactosidase.; format: functional
[3] = NIH-3T3 fibroblast cytotoxicity, dose response, cytotoxicity control, cell-based, fluorescence, Alamar Blue, secondary assay (AID 2327); format: functional;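 further: NIH-3T3 mouse fibroblasts cultured with fluconazole at 8 µg/mL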
[4] = C. albicans growth with fluconazole, confirmation, fluorescence, retest (AID 2467); format: functional, cell-based
[5] = microbe, parasite or virus in culture; format: functional; details: Mycobacterium tuberculosis
[6] = THP-1 cell cytotoxicity, dose response, cytotoxicity control for non-replicating M. tuberculosis project (AID 489025); format: functional
[7] = Vero E6 cell cytotoxicity, dose response, cytotoxicity control for non-replicating M. tuberculosis project, secondary assay (AID 492998); format: functional, VeroE6; details: Vero C1008
cells [8] = format: functional
Albumin = Albumin (Bos taurus, UniProt P02769); experiment: Counterscreen for inhibitors of T-cell receptor (TCR)-CD3 interaction: Fluorescence-based biochemical high throughput dose response assay to identify inhibitors of T-cell receptor (TCR)-CD3 interaction using a TAMRA-labeled BSA probe.; format: functional
[9] = target: Luciferin 4-monooxygenase (Photinus pyralis, UniProt P08659); experiment: Counter Screen for Luciferase-based Assay Positives. [Related pubchem assays: 620, 618, 411 ]
HT-1080 = experiment: cytotoxicity in HT1080 fibrosarcoma cells, cell-based, fluorescence readout (AID 620); format: functional; details: Homo sapiens
HEK293 = experiment: inhibitors of LMP1-driven NF-kB reporter, dose response, cell-based, HEK293, luciferase, cherry-pick (AID 588343); format: functional, Homo sapiens; details: Homo sapiens, HEK293
[10] = A549 cell cytotoxicity, dose response, cytotoxicity control, plate reader, cherry-pick, antagonist series (AID 743412); format: functional, cell-based
[11] = HepG2 cell cytotoxicity, dose response, cytotoxicity control, plate reader, cherry-pick, antagonist series (AID 743416); format: functional, cell-based
[12] = LGR2 antagonists, dose response, cell-based, HEK293, CRE-luciferase reporter, cherry pick, set 2 (AID 743343); format: functional;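 further: transfected cells were stimulated with diluted bursicon conditioned medium after compound addition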
[13] = MC4R antagonists, dose response, counter-screen for LGR2 antagonist project, cell-based, plate reader, cherry pick (AID 743444); format: functional;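 further: transfected HEK 293 cells stimulated with alpha-MSH peptide; potency of inhibitors of the alpha-MSH evoked signal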
[14] = HEK293 cell cytotoxicity, dose response, cytotoxicity control, plate reader, cherry-picked samples (AID 743446); format: functional, cell-based
[15] = system: Streptococcus sp. 'group A'; experiment: growth inhibition of control SK(-) GAS strain, dose response, counter-screen for streptokinase expression inhibitor project, luminescence, kanamycin, BacTiterGlo, confirmation (AID 1900); format: functional, organism-based
Streptococcus = experiment: Group A Streptococcus viability loss, dose response, counter-screen for streptokinase expression inhibitor project, luminescence, BacTiterGlo (AID 1915); format: functional, organism-based;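 further: potency for reduction of bacterial viability or growth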
cells [16] = format: functional, cell-based
[17] = target: T1, Trace amine-associated receptor 1 (Homo sapiens, UniProt Q96RJ0); experiment: Fluorescence-based cell-based high throughput dose response assay to identify agonists of the human trace amine associated receptor 1 (TAAR1).; format: functional
T1 sequence (Q96RJ0 whole entry): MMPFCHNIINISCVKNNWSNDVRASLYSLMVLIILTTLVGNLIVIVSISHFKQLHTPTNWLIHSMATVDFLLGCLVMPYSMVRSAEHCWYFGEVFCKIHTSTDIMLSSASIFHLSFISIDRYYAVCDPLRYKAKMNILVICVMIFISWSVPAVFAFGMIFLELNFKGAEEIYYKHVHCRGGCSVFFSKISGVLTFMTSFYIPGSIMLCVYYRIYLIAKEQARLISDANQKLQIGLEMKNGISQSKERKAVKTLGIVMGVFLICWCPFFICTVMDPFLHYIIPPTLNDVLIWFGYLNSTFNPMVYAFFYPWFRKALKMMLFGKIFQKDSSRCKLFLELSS

[18] = target: T1, Trace amine-associated receptor 1; experiment: Counterscreen for agonists of the human trace amine associated receptor 1 (hTAAR1): Fluorescence-based cell-based high throughput dose response assay to identify hTAAR1 agonist that also desensitize TAAR1 receptor response.; format: functional
cells [19] = format: functional, cell-based; remark: listed apart in the source
[20] = inhibitors of HIV Env-driven cell fusion, dose response, cherry-pick (AID 652057); format: functional, cell-based
[21] = ZM109 Env clade C HIV-1 fusion inhibitors, dose response, HeLa effector, CEM target cells, luciferase, cherry-pick (AID 652058); format: functional, cell-based
[22] = off-target signal loss in HeLa-CEM21 co-culture – HeLa F-luc CTL cells, cherry-picked, counter-screen for HIV-1 Env fusion inhibitor project, dose response (AID 652040); format: functional, cell-based;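 further: potency for signal decrease marking cytotoxic or nonspecific inhibition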
[23] = inhibitors of clade B AD8 Env fusion, dose response, cell-based, cherry-pick (AID 652062); format: functional;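 further: luciferase signal from cell-cell fusion driven by HIV-1 clade B AD8 Env; potency is for inhibitors of fusion seen as a drop in luminescence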
[24] = target: DNA dC->dU-editing enzyme APOBEC-3A (Homo sapiens, UniProt P31941); experiment: Dose Response confirmation of small molecule APOBEC3A DNA Deaminase Inhibitors via a fluorescence-based single-stranded DNA deaminase assay. [Related pubchem assays (depositor defined):AID493011, AID493024]; format: functional
[25] = target: DNA dC->dU-editing enzyme APOBEC-3G (Homo sapiens, UniProt Q9HC16); format: functional;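 further: Dose-response counterscreen measuring inhibition of APOBEC3G DNA deaminase activity, run while confirming APOBEC3A inhibitors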
[26] = target: T2, Carboxy-terminal domain RNA polymerase II polypeptide A small phosphatase 1 (Homo sapiens, UniProt Q9GZU7); experiment: inhibitors of CTDSP1, concentration-response testing, biochemical assay, absorbance-based, actives from ultra-high-throughput screening (AID 540297); format: functional
T2 sequence (Q9GZU7 whole entry): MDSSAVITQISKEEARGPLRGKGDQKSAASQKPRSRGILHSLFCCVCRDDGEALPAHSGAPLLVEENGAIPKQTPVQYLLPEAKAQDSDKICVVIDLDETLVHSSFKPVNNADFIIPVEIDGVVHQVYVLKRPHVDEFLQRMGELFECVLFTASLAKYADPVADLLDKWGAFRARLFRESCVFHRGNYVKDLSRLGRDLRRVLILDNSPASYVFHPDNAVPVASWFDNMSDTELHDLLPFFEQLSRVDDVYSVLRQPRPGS

Caspase-6 = target: T3, Caspase-6 (Homo sapiens, UniProt P55212); experiment: human caspase-6 inhibitors, dose response, biochemical, VEID-R110 fluorescence, cherry-pick (AID 720632)
T3 sequence (P55212 whole entry): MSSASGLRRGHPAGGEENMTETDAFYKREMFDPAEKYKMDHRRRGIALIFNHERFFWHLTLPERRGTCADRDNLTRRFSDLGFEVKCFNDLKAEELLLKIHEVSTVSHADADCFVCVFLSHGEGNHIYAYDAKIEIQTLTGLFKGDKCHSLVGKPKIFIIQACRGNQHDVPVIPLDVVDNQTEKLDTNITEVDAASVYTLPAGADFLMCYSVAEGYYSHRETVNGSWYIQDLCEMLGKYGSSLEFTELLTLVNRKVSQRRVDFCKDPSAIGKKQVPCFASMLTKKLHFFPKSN

Paired box protein Pax-8 = Paired box protein Pax-8 (Homo sapiens, UniProt Q06710); experiment: inhibitors of PAX8-driven TPO luciferase reporter, dose response, RMG-I cells, cherry-pick (AID 687027); format: functional, cell-based;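 further: luciferase reporter driven by Pax8 target thyroperoxidase promoter measured by SteadyGlo luminescence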
[27] = NIH:OVCAR-3 ovarian cancer cell cytotoxicity, dose response, PAX8 inhibitor project, plate reader, dry powder samples (AID 743044); format: functional, cell-based
[28] = cytotoxicity in OVCAR8 ovarian cancer cells, dose response, PAX8 project, cell-based, plate reader, dry powder samples (AID 743197); format: functional; details: OVCAR-8

Beta-galactosidase, sequence (Q8VNN2 whole entry): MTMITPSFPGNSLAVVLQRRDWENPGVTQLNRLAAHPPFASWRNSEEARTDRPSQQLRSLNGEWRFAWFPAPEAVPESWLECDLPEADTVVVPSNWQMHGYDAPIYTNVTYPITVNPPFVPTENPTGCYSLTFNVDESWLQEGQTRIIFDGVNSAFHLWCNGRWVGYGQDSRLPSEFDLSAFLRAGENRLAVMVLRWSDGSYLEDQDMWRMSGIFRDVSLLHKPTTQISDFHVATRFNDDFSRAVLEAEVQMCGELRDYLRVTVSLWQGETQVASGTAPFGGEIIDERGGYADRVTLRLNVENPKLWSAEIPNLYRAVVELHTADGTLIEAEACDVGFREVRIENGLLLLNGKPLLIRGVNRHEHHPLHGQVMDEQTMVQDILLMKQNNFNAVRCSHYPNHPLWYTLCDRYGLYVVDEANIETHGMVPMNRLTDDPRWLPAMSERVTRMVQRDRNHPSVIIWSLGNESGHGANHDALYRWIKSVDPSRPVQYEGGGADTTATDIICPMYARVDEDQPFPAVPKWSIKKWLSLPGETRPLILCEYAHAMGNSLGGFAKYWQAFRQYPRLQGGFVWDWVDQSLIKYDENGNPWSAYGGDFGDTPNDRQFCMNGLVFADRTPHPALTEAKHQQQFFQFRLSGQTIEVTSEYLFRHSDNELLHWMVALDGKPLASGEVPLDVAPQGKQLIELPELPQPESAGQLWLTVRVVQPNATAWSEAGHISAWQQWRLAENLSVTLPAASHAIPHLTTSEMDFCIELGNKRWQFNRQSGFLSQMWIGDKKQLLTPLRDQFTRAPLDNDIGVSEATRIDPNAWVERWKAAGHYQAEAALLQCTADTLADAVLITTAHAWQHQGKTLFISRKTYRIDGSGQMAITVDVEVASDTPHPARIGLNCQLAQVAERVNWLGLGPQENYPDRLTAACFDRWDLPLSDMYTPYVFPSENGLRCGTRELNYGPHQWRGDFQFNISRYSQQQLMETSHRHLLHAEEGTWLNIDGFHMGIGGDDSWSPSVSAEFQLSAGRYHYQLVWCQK
Albumin, sequence (P02769 whole entry): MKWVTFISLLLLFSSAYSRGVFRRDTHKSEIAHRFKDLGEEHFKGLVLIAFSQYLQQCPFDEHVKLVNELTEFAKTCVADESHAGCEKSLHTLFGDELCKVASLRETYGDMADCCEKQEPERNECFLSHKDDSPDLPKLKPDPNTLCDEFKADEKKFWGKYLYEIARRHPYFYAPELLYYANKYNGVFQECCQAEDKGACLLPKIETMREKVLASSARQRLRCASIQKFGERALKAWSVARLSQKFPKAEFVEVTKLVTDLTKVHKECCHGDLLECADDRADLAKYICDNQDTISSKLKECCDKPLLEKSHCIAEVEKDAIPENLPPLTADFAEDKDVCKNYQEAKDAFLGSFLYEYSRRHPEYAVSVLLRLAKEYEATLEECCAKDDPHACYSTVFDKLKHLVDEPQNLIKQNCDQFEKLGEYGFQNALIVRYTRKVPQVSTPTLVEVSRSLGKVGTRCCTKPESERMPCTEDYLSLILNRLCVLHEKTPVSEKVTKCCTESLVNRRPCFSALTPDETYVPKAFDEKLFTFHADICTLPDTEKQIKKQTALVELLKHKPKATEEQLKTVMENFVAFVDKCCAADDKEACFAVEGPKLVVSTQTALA
DNA dC->dU-editing enzyme APOBEC-3G, sequence (Q9HC16 whole entry, the tested form may be a part): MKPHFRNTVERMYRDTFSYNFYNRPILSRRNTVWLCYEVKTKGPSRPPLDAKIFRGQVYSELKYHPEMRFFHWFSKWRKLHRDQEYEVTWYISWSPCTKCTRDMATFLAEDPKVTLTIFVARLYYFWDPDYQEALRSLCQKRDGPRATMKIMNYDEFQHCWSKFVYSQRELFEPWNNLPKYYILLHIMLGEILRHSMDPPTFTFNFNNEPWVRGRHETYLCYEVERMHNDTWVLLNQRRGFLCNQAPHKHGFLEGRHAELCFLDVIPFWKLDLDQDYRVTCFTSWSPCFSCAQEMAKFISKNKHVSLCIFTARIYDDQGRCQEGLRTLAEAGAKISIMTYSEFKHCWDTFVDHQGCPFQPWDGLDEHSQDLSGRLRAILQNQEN
DNA dC->dU-editing enzyme APOBEC-3A, sequence (P31941 whole entry): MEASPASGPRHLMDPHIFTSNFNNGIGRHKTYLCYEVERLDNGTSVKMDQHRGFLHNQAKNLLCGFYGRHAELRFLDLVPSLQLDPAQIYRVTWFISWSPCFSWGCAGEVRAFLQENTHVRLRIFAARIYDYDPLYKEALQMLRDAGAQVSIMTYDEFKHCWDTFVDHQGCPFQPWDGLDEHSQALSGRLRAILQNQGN
Luciferin 4-monooxygenase, sequence (P08659 whole entry): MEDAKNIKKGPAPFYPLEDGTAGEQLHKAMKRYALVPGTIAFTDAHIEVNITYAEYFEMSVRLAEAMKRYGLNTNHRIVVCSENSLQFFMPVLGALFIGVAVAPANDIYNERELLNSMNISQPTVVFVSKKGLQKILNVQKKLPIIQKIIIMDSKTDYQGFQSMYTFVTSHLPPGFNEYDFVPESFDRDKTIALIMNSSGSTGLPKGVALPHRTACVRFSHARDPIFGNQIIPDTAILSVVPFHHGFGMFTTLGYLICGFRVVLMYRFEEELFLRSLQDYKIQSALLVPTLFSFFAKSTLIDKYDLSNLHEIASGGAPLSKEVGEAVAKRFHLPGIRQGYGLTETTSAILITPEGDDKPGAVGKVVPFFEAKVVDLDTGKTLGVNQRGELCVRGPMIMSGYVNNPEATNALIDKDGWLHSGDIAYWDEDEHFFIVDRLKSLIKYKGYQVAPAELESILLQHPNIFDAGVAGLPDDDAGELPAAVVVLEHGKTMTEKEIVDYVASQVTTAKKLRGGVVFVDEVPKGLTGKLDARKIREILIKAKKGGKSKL
Paired box protein Pax-8, sequence (Q06710 whole entry): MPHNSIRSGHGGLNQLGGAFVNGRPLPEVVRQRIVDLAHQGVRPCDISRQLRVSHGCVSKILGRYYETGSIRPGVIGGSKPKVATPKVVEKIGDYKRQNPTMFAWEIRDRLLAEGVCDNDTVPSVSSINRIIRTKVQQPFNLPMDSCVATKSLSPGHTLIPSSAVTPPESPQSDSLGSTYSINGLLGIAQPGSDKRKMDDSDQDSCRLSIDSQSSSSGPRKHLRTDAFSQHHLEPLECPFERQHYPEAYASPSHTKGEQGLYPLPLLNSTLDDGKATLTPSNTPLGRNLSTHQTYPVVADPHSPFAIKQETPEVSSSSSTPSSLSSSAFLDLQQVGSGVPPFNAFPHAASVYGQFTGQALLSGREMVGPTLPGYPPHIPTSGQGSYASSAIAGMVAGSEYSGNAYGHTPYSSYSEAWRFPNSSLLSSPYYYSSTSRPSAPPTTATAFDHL

O=C(Nc1ccncc1F)c1ccc2ncsc2c1
CC50 [1]: > 300 µM (inactive)

CCN(CC(=O)NCc1ccc(Cl)cc1)C(=O)CSCC(=O)Nc1ccc(C)cc1
AC50 [2]: 5.23 µM (active)

COc1ccc(-n2cc(-c3ccc(Cl)cc3)nc2S)cc1
IC50 (Beta-galactosidase): > 80 µM (inactive)

Cc1cc2oc3ccc(NCCCn4ccnc4)cc3c(=O)c2cc1C
EC50 [3]: 24.7 µM (active)
EC50 [4]: 1.82 µM (active)
CC50 [5]: 12.4 µM (active)
CC50 [6]: 26.9 µM (active)
CC50 [7]: 14.6 µM (active)
IC50 (cells [8]): 27.9 µM (active)
IC50 (Albumin): > 94.1 µM (inactive)

c1ccc(-c2nc(-c3ccccn3)no2)cc1
EC50 [9]: 0.35 µM (active)
EC50 (HT-1080): > 50 µM (not active)
AC50 (HEK293): 1.68 µM (active)
AC50 [10]: 6.2 µM (active)
AC50 [11]: 9.19 µM (active)
AC50 [12]: 2.65 µM (active)
AC50 [13]: 2.47 µM (active)
AC50 [14]: 7.31 µM (active)

Cc1cc(C(=O)N/N=C/c2cc(Br)cc([N+](=O)[O-])c2O)c2ccccc2n1
EC50 [15]: 1.36 µM (active)
EC50 (Streptococcus): 1.5 µM (active)
IC50 (Albumin): > 94.1 µM (inactive)

COc1cc(/C=C(\C#N)C(N)=O)ccc1OS(=O)(=O)c1ccc(C)cc1
IC50 (Beta-galactosidase): > 80 µM (inactive)

Cc1cnccc1NC(=O)c1ccc2ncsc2c1
CC50 [1]: > 300 µM (inactive)

CC(CNC(=O)[C@H]1O[C@@H](n2cnc3c(=O)[nH]c(N)nc32)[C@H](O)[C@@H]1O)c1ccccc1 (stereo partly drawn)
IC50 (cells [16]): > 29.9 µM (inactive)
EC50 [17]: 1.54 µM (active)
IC50 [18]: 3.77 µM (active)
EC50 (cells [19]): > 29.9 µM (inactive)

O=C(CCCCn1c(=O)[nH]c2ccccc2c1=O)N1CCN(c2cccc(C(F)(F)F)c2)CC1
AC50 [20]: 11.1 µM (active)
AC50 [21]: 3.8 µM (active)
AC50 [22]: 16 µM (active)
AC50 [23]: 8.93 µM (active)

O=P(c1ccccc1)(c1ccccc1)c1cc(S(=O)(=O)O)ccc1O
IC50 [24]: 14.3 µM (active)
IC50 [25]: 45 µM (active)
IC50 [26]: 9.24 µM (active)
AC50 (Caspase-6): 1.78 µM (active)

COc1ccccc1C#Cc1ccc2c(c1)O[C@@H](CN(C)Cc1cncnc1)[C@H](C)CN([C@H](C)CO)S2(=O)=O
AC50 (Paired box protein Pax-8): 2.16 µM (active)
AC50 [27]: 32.6 µM (active)
AC50 [28]: 29 µM (active)
